Assay results: patent US7951802B2, “Use of 7-azaindoles in the inhibition of c-Jun N-terminal kinase” (Eisai R&D Management Co., Ltd., priority 2007, dated 2011)

Molecular target: JNK3 (Homo sapiens, UniProt P53779)
Assay: JNK3 SPA assay (phosphorylation of GST-c-Jun)
Format: biochemical
Conditions: 3.33 μM ATP, GST-c-Jun substrate, read-out: IC50 against JNK3
Procedure: JNK1, JNK2, JNK3—SPA Assay
JNK1, JNK2, JNK3—SPA Assay • 1. Compound is dissolved in DMSO to a convenient concentration and this is diluted in 10% DMSO to a five times concentrate of the desired starting concentration (frequently 1:100). • 2. 10 μl of 500 mM EDTA is added to alternative wells of the Opti-plate row, which will receive kinase reaction plus DMSO. This creates the negative control. • 3. For the JNK2 and JNK3 assay, compounds are prepared in six 2-fold dilutions with water and each concentration is tested in duplicate. For the JNK1 assay compounds are prepared in four 5-fold dilutions with water which are tested in triplicate. Controls are treated identically. • 4. 20 μl per well of each compound concentration is transferred to an Opti-plate, in duplicate. • 5. 30 μl (JNK2/3 SPA) or 50 μl (JNK1 SPA) of substrate solution (25 mM HEPES pH 7.5, 10 mM magnesium acetate with 3.33 μM ATP (JNK2/3) or 2 μM ATP (JNK1), approximately 7.5 kBq [γ-^33P] ATP, GST-c-Jun, in water) is added to each well. • 6. 50 μl (JNK2/3 SPA) or 30 μl (JNK1 SPA) of kinase solution (JNK in 25 mM HEPES pH 7.5, 10 mM Mg Acetate) is added to each well.
• 7. The plate is incubated for 30 minutes at room temperature. • 8. 100 μl of bead/stop solution is added to each well (5 mg/ml glutathione-PVT-SPA beads, 40 mM ATP in PBS). • 9. Plates are sealed and incubated for 30 minutes at room temperature, centrifuged for 10 minutes at 2500 g and counted. • 10. The IC50 values are calculated as the concentration of the compound being tested at which the phosphorylation of c-Jun is decreased to 50% of the control value.

JNK3, sequence (P53779 whole entry, species assumed): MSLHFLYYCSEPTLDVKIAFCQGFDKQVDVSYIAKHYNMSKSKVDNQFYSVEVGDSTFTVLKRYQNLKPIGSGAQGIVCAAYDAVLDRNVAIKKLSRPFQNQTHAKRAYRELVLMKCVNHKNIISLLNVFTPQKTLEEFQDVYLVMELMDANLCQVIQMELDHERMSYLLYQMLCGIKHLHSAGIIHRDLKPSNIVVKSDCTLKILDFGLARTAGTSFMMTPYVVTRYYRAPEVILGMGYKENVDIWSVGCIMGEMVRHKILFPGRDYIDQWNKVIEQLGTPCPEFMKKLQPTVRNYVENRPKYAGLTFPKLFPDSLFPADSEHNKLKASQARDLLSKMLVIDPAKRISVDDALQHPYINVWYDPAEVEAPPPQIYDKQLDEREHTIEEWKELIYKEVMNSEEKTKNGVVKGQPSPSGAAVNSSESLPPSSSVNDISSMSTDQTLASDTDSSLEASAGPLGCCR

Compound	IC50 [nM]
O=C(c1nc(-c2c[nH]c3ncc(C4CCC5(CC4)OCCO5)cc23)cs1)N1CCCCC1 [Compound I-25, {4-[5-(1,4-Dioxa-spiro[4.5]dec-8-yl)-1H-pyrrolo[2,3-b]pyridin-3-yl]-thiazol-2-yl}-piperidin-1-yl-methanone]	16
CN1CCC(c2nc(-c3c[nH]c4ncc([C@H]5CC[C@H](N6CCCC6)CC5)cc34)cs2)CC1 [Compound I-98, 2-(1-methylpiperidin-4-yl)-4-(5-((1r,4r)-4-(pyrrolidin-1-yl)cyclohexyl)-1H-pyrrolo[2,3-b]pyridin-3-yl)thiazole]	794
c1csc(-c2c[nH]c3ncc([C@H]4CC[C@H](N5CCOCC5)CC4)cc23)n1 [Compound I-89, 4-((1r,4r)-4-(3-(thiazol-2-yl)-1H-pyrrolo[2,3-b]pyridin-5-yl)cyclohexyl)morpholine]	575
CN1CCCC1c1nc(-c2c[nH]c3ncc([C@H]4CC[C@H](N5CCOCC5)CC4)cc23)cs1 (some centres unmarked) [Compound I-107, 4-((1r,4r)-4-(3-(2-(1-methylpyrrolidin-2-yl)thiazol-4-yl)-1H-pyrrolo[2,3-b]pyridin-5-yl)cyclohexyl)morpholine]	1260
Cc1nc(-c2c[nH]c3ncc([C@H]4CC[C@H](N5CCCOCC5)CC4)cc23)cs1 [Compound I-75, 4-((1r,4r)-4-(3-(2-methylthiazol-4-yl)-1H-pyrrolo[2,3-b]pyridin-5-yl)cyclohexyl)-1,4-oxazepane]	> 1000
c1ncc(-c2c[nH]c3ncc([C@H]4CC[C@H](N5CCCOCC5)CC4)cc23)s1 [Compound I-118, 4-((1r,4r)-4-(3-(thiazol-5-yl)-1H-pyrrolo[2,3-b]pyridin-5-yl)cyclohexyl)-1,4-oxazepane]	219
c1sc(N2CCCC2)nc1-c1c[nH]c2ncc([C@H]3CC[C@H](N4CCCOCC4)CC3)cc12 [Compound I-122, 5-[trans-4-(1,4-oxazepan-4-yl)cyclohexyl]-3-(2-pyrrolidin-1-yl-1,3-thiazol-4-yl)-1H-pyrrolo[2,3-b]pyridine]	1290
CN1CCCC1c1nc(-c2c[nH]c3ncc([C@H]4CC[C@H](N5CCCC5)CC4)cc23)cs1 (some centres unmarked) [Compound I-111, 2-(1-methylpyrrolidin-2-yl)-4-(5-((1r,4r)-4-(pyrrolidin-1-yl)cyclohexyl)-1H-pyrrolo[2,3-b]pyridin-3-yl)thiazole]	1740
CN1CCC(c2nc(-c3c[nH]c4ncc(C5=CCC(N6CCOCC6)CC5)cc34)cs2)CC1 (centres unmarked) [Compound I-100, 4-(4-(3-(2-(1-methylpiperidin-4-yl)thiazol-4-yl)-1H-pyrrolo[2,3-b]pyridin-5-yl)cyclohex-3-enyl)morpholine]	447
CN1CCC(c2nc(-c3c[nH]c4ncc(C5=CCCC5)cc34)cs2)CC1 [Compound I-1, 5-Cyclopent-1-enyl-3-[2-(1-methyl-piperidin-4-yl)-thiazol-4-yl]-1H-pyrrolo[2,3-b]pyridine]	434
c1nc(-c2c[nH]c3ncc([C@H]4CC[C@H](N5CCOCC5)CC4)cc23)cs1 [Compound I-59, 4-((1r,4r)-4-(3-(thiazol-4-yl)-1H-pyrrolo[2,3-b]pyridin-5-yl)cyclohexyl)morpholine]	813
CN1CCN([C@H]2CC[C@H](c3cnc4[nH]cc(-c5csc(C6CCCN6C)n5)c4c3)CC2)CC1 (some centres unmarked) [Compound I-109, 4-(5-((1r,4r)-4-(4-methylpiperazin-1-yl)cyclohexyl)-1H-pyrrolo[2,3-b]pyridin-3-yl)-2-(1-methylpyrrolidin-2-yl)thiazole]	1740
CC1CC=C(c2cnc3[nH]cc(-c4csc(C(=O)N5CCOCC5)n4)c3c2)CC1 (centres unmarked) [Compound I-13, {4-[5-(4-Methyl-cyclohex-1-enyl)-1H-pyrrolo[2,3-b]pyridin-3-yl]-thiazol-2-yl}-morpholin-4-yl-methanone]	151
Cc1nc(-c2c[nH]c3ncc(C4CCCCC4)cc23)cs1 [Compound I-58, 4-(5-cyclohexyl-1H-pyrrolo[2,3-b]pyridin-3-yl)-2-methylthiazole]	> 2000
CCOc1nc(-c2c[nH]c3ncc([C@H]4CC[C@H](N5CCCOCC5)CC4)cc23)cs1 [Compound I-125, 3-(2-ethoxy-1,3-thiazol-4-yl)-5-[trans-4-(1,4-oxazepan-4-yl)cyclohexyl]-1H-pyrrolo[2,3-b]pyridine]	520
Cc1csc(-c2c[nH]c3ncc([C@H]4CC[C@H](N5CCOCC5)CC4)cc23)n1 [Compound I-61, 4-((1r,4r)-4-(3-(4-methylthiazol-2-yl)-1H-pyrrolo[2,3-b]pyridin-5-yl)cyclohexyl)morpholine]	575

Compound	IC50 [nM]
O=C(c1nc(-c2c[nH]c3ncc([C@H]4CC[C@H](N5CCOCC5)CC4)cc23)cs1)N1CCOCC1 [Compound I-34, morpholino(4-(5-((1r,4r)-4-morpholinocyclohexyl)-1H-pyrrolo[2,3-b]pyridin-3-yl)thiazol-2-yl)methanone]	162
c1csc(-c2c[nH]c3ncc([C@H]4CC[C@@H](N5CCOCC5)CC4)cc23)n1 [Compound I-90, 4-((1s,4s)-4-(3-(thiazol-2-yl)-1H-pyrrolo[2,3-b]pyridin-5-yl)cyclohexyl)morpholine]	1320
CN1CCN([C@H]2CC[C@@H](c3cnc4[nH]cc(-c5nc(C(F)(F)F)cs5)c4c3)CC2)CC1 [Compound I-83, 2-(5-((1s,4s)-4-(4-methylpiperazin-1-yl)cyclohexyl)-1H-pyrrolo[2,3-b]pyridin-3-yl)-4-(trifluoromethyl)thiazole]	603
CN1CCC(c2csc(-c3c[nH]c4ncc([C@H]5CC[C@@H](N6CCOCC6)CC5)cc34)n2)CC1 [Compound I-79, 4-((1s,4s)-4-(3-(4-(1-methylpiperidin-4-yl)thiazol-2-yl)-1H-pyrrolo[2,3-b]pyridin-5-yl)cyclohexyl)morpholine]	309
O=C(c1nc(-c2c[nH]c3ncc(C4CCCCC4)cc23)cs1)N1CCCCC1 [Compound I-7, [4-(5-Cyclohexyl-1H-pyrrolo[2,3-b]pyridin-3-yl)-thiazol-2-yl]-piperidin-1-yl-methanone]	238
Cc1csc(-c2c[nH]c3ncc(C4CCCCC4)cc23)n1 [Compound I-51, 2-(5-cyclohexyl-1H-pyrrolo[2,3-b]pyridin-3-yl)-4-methylthiazole]	933
CC1CCC(c2cnc3[nH]cc(-c4csc(C(=O)N(C)C)n4)c3c2)CC1 (centres unmarked) [Compound I-19, 4-[5-(4-Methyl-cyclohexyl)-1H-pyrrolo[2,3-b]pyridin-3-yl]-thiazole-2-carboxylic acid dimethylamide]	117
c1csc(-c2c[nH]c3ncc(C4CCCCC4)cc23)n1 [Compound I-26, 2-(5-cyclohexyl-1H-pyrrolo[2,3-b]pyridin-3-yl)thiazole]	324
Cc1nc(-c2c[nH]c3ncc([C@H]4CC[C@@H](N5CCOCC5)CC4)cc23)cs1 [Compound I-56, 4-((1s,4s)-4-(3-(2-methylthiazol-4-yl)-1H-pyrrolo[2,3-b]pyridin-5-yl)cyclohexyl)morpholine]	> 2000
C1=C(c2cnc3[nH]cc(-c4nccs4)c3c2)CCCC1 [Compound I-24, 2-(5-cyclohexenyl-1H-pyrrolo[2,3-b]pyridin-3-yl)thiazole]	229
CC1(C)C=CC(c2cnc3[nH]cc(-c4csc(C(=O)N5CCOCC5)n4)c3c2)=CC1 [Compound I-16, {4-[5-(4,4-Dimethyl-cyclohexa-1,5-dienyl)-1H-pyrrolo[2,3-b]pyridin-3-yl]-thiazol-2-yl}-morpholin-4-yl-methanone]	395
O=C(c1nc(-c2c[nH]c3ncc([C@H]4CC[C@@H](N5CCOCC5)CC4)cc23)cs1)N1CCCCC1 [Compound I-30, (4-(5-((1r,4r)-4-morpholinocyclohexyl)-1H-pyrrolo[2,3-b]pyridin-3-yl)thiazol-2-yl)(piperidin-1-yl)methanone]	229
c1ncc(-c2c[nH]c3ncc(C4CCCCC4)cc23)s1 [Compound I-48, 5-(5-cyclohexyl-1H-pyrrolo[2,3-b]pyridin-3-yl)thiazole]	580
Cc1csc(-c2c[nH]c3ncc([C@H]4CC[C@H](N5CCCOCC5)CC4)cc23)n1 [Compound I-117, 4-((1r,4r)-4-(3-(4-methylthiazol-2-yl)-1H-pyrrolo[2,3-b]pyridin-5-yl)cyclohexyl)-1,4-oxazepane]	832
CN1CCCC1c1nc(-c2c[nH]c3ncc([C@H]4CC[C@@H](N5CCCOCC5)CC4)cc23)cs1 (some centres unmarked) [Compound I-114, 4-((1s,4s)-4-(3-(2-(1-methylpyrrolidin-2-yl)thiazol-4-yl)-1H-pyrrolo[2,3-b]pyridin-5-yl)cyclohexyl)-1,4-oxazepane]	1440
Cc1nc(-c2c[nH]c3ncc([C@H]4CC[C@@H](N5CCN(C)CC5)CC4)cc23)cs1 [Compound I-92, 2-methyl-4-(5-((1s,4s)-4-(4-methylpiperazin-1-yl)cyclohexyl)-1H-pyrrolo[2,3-b]pyridin-3-yl)thiazole]	> 1000
